One assay addresses T1, Nav1.7 (Homo sapiens, UniProt Q15858).
T1 construct: ChanTest Corp; host or cells: CHO cells (Chinese hamster)
Nature of the assay: Patch clamp testing, Nav1.7 ion channel inhibition (SyncroPatch 384PE). Format: cell-based. The protocol: An examination of the in vitro effects of the compounds consistent with the present disclosure on ion channels Nav1.5 (a sodium voltage-gated channel alpha subunit found predominantly in cardiac muscle cells) and Nav1.7 (a sodium voltage-gated channel alpha subunit normally expressed in high levels in nociceptive pain neurons at dorsal root ganglion (DRG) and trigeminal ganglion and in sympathetic ganglion neurons) was performed using adult epithelial (ovarian) tissue CHO cells of Chinese hamsters (C. griseus) […] transfected with human ion channel cDNAs (ATCC, Manassas, VA; ChanTest Corp., Cleveland, OH). Cells were cultured in Ham's F-12 medium supplemented with 10% fetal bovine serum, 100 U/mL penicillin G sodium, 100 μg/mL streptomycin sulfate, and 500 μg/mL G418 aminoglycoside antibiotic.
(§1) Each compound was analyzed at concentrations of 1000 μM, 300 μM, 100 μM, 30 μM, 10 μM, 3 μM, 1 μM, and 0.3 μM. […] All tested compound formulations contained 0.3% DMSO. Each concentration of each compound was loaded into a well of a 384-well polypropylene compound plate using an automated liquid handling system (Integra Assist Plus, Integra) and then placed in the plate well of SyncroPatch 384PE (SP384PE; Nanion Technologies, Livingston, NJ) immediately before application of the cells.
Observed IC50 values of the channel current inhibition for each test article are provided in Table 8 (Nav1.5 ion channel inhibition) and Table 9 (Nav1.7 ion channel inhibition).
Background: Patch clamp records ionic current or voltage across a cell membrane.

Another assay deals with T2, Nav1.5 (Homo sapiens, UniProt Q14524).
T2 construct: ChanTest Corp; host or cells: CHO cells (Chinese hamster)
T2 sequence (Q14524 whole entry): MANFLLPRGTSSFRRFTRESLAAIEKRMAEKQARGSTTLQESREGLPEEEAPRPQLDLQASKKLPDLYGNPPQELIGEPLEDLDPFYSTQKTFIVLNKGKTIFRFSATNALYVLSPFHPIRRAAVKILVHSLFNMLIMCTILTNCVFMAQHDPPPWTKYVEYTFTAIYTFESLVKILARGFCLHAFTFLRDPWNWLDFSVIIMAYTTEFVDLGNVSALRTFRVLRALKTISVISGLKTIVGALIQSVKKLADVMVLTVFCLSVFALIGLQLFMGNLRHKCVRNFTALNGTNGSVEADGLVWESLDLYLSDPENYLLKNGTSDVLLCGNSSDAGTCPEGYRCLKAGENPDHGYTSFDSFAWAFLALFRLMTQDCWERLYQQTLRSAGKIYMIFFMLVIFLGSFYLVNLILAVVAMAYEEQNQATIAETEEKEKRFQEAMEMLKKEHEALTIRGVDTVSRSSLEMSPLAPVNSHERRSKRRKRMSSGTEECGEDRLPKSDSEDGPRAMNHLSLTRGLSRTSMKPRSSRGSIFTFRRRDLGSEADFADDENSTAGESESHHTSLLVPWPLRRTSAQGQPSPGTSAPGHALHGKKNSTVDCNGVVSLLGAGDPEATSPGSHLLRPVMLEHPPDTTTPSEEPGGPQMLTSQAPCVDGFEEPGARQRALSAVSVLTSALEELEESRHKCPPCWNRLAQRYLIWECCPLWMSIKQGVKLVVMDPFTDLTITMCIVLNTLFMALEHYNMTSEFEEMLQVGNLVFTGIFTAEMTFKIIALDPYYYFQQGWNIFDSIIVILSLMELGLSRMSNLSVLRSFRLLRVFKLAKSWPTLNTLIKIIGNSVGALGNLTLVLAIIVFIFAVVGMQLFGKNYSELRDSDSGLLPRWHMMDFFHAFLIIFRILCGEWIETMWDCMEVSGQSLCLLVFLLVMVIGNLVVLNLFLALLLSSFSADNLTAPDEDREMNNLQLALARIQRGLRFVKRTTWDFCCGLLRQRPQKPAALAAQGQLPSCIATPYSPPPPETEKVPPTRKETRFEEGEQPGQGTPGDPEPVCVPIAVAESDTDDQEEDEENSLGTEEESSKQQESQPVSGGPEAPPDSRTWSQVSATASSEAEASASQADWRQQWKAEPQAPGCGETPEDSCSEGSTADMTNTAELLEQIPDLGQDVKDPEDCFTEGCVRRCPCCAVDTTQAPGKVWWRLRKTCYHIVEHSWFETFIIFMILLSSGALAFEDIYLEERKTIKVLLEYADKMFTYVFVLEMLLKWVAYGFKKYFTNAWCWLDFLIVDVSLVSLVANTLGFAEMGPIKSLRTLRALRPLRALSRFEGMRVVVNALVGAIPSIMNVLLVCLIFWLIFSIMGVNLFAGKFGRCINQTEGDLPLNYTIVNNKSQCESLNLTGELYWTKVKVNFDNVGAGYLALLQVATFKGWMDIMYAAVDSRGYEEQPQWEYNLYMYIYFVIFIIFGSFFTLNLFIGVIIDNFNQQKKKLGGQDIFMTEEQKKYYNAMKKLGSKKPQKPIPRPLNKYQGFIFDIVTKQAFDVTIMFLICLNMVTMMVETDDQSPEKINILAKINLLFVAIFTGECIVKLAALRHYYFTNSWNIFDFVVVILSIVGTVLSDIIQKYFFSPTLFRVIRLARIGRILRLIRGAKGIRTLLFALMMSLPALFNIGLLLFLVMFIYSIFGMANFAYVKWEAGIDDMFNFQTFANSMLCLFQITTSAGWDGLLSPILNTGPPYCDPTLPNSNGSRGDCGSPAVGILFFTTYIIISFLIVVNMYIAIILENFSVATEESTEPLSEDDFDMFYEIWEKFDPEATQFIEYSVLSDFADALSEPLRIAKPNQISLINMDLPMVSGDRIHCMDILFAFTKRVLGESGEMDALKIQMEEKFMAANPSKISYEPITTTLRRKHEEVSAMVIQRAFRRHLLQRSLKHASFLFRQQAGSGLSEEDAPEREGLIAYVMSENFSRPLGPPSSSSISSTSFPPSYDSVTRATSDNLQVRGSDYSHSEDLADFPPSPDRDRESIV
As to the kind of experiment: Patch clamp testing, Nav1.5 ion channel inhibition (SyncroPatch 384PE). Format: cell-based. On the procedure: Cells were cultured in Ham's F-12 medium supplemented with 10% fetal bovine serum, 100 U/mL penicillin G sodium, 100 μg/mL streptomycin sulfate, and 500 μg/mL G418 aminoglycoside antibiotic.
as §1

Where [1] appears, read: TP1A = Tonic Block, CHO cells transfected with human ion channel cDNA, 0.3% DMSO, read-out: Inhibition of Nav1.7 Ion Channel IC50, TP1A.
The mark [2] stands for this setting: TP2A = Inactivated State-Dependent Block, CHO cells transfected with human ion channel cDNA, 0.3% DMSO, read-out: Inhibition of Nav1.7 Ion Channel IC50, TP2A.
Where [3] appears, read: TP25B = Use-Dependent Block, CHO cells transfected with human ion channel cDNA, 0.3% DMSO, read-out: Inhibition of Nav1.7 Ion Channel IC50, TP25B.
[4] abbreviates: Inhibition of Nav1.5 Ion Channel IC50, TP1A, TP1A = Tonic Block, CHO cells transfected with human ion channel cDNA, 0.3% DMSO.
[5] abbreviates: Inhibition of Nav1.5 Ion Channel IC50, TP2A, TP2A = Inactivated State-Dependent Block, CHO cells transfected with human ion channel cDNA, 0.3% DMSO.
Where [6] appears, read: Inhibition of Nav1.5 Ion Channel IC50, TP25B, TP25B = Use-Dependent Block, CHO cells transfected with human ion channel cDNA, 0.3% DMSO.
[7] abbreviates: read-out: Inhibition of Nav1.7 Ion Channel IC50, TP25B, TP25B = Use-Dependent Block, CHO cells transfected with human ion channel cDNA, 0.3% DMSO.

Read-outs that look alike come from different tables or passages of the source.

T1 sequence (Q15858 whole entry): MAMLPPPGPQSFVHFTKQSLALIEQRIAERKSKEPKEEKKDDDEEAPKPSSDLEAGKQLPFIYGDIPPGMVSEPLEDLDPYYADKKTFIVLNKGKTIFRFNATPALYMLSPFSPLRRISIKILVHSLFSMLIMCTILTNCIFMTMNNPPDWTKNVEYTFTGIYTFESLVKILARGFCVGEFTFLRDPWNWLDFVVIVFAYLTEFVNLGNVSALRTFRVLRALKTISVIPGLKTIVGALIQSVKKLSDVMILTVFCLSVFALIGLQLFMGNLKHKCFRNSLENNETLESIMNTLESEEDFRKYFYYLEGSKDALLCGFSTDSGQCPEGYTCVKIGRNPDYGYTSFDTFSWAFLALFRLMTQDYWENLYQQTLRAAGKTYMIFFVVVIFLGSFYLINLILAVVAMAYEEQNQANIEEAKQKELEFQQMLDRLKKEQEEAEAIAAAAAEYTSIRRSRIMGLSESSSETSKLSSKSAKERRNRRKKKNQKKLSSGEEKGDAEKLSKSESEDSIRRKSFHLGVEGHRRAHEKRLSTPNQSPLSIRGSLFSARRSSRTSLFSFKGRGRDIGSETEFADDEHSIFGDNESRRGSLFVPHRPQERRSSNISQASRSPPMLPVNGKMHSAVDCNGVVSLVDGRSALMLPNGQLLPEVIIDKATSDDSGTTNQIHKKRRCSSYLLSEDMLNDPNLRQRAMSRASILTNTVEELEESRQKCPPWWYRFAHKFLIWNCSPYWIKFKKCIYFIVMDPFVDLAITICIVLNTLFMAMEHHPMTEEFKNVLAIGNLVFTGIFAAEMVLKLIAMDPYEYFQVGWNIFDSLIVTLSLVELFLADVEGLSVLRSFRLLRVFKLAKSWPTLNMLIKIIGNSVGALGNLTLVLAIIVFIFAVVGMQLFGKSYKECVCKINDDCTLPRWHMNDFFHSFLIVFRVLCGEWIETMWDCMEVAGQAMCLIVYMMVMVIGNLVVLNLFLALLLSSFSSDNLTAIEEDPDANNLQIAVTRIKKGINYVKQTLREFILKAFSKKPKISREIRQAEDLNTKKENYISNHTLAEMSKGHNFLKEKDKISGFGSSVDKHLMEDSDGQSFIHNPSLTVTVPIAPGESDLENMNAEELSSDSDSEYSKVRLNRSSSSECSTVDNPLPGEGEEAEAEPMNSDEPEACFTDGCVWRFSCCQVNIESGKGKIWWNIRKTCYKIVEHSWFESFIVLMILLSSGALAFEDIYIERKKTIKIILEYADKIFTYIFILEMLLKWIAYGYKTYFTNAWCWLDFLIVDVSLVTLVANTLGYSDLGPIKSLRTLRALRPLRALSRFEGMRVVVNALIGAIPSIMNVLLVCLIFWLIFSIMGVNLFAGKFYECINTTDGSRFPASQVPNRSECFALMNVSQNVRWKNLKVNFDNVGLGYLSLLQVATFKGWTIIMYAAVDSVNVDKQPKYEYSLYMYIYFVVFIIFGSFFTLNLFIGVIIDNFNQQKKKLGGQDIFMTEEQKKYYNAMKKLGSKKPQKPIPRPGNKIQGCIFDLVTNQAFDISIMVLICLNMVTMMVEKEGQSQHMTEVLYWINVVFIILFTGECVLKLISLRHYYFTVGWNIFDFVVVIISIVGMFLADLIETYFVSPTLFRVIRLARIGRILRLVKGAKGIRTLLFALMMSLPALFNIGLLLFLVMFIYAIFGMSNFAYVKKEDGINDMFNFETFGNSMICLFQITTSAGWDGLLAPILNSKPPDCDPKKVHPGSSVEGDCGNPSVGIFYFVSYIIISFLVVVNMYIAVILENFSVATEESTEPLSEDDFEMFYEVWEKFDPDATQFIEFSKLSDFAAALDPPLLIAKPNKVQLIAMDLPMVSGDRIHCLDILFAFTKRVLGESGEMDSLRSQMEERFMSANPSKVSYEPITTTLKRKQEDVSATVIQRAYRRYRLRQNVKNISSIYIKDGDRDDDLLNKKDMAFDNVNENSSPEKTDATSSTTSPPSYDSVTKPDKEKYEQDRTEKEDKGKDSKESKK

Turning to `COc1ccc(N(C)C(=O)CN(CCN(C)C)c2cccc(Cl)c2F)cc1` [Compound 2300], the IC50 is 546 µM on Nav1.7 (setting [1]); 673 µM on Nav1.7 (setting [2]); 626 µM at Nav1.7 (setting [3]); 327 µM on Nav1.5 (setting [4]); 307 µM at Nav1.5 (setting [5]); 259 µM on Nav1.5 (setting [6]).
Regarding `COc1ccc(N(C)C(=O)CN(CCN(C)C)c2ccc(Cl)c(C(F)(F)F)c2)cc1` [Compound 2297], the IC50 was 74.7 µM on Nav1.7 (setting [1]); 66.2 µM at Nav1.7 (setting [2]); 54.4 µM at Nav1.7 (setting [3]); 95.1 µM on Nav1.5 (setting [4]); 91.2 µM at Nav1.5 (setting [5]); 72.7 µM on Nav1.5 (setting [6]).
With `COc1ccc(N(CCN(C)C)CC(=O)N(C)c2ccc(OC)cc2)cc1` [Compound 2294], the IC50 at Nav1.7 (setting [1]), at Nav1.7 (setting [2]), at Nav1.7 (setting [3]), against Nav1.5 (setting [4]), at Nav1.5 (setting [5]) and on Nav1.5 (setting [6]) was over 1000 µM throughout.
Turning to `COc1ccc(N(C)C(=O)CN(CCN(C)C)c2ccccc2OC)cc1` [Compound 2293], the IC50 against Nav1.7, at Nav1.7 (setting [1]), at Nav1.7 (setting [7]), on Nav1.5, against Nav1.5 (setting [5]) and on Nav1.5 (setting [6]) was over 1000 µM in each case.
Regarding `CCN(CC)CC(=O)Nc1c(C)cccc1C` [Lidocaine, reference compound], the IC50 at Nav1.7 (setting [1]) worked out at 408 µM; at Nav1.7 (setting [2]), 23.7 µM; on Nav1.7 (setting [3]) it was 113 µM.
`COc1ccc(N(C)C(=O)CN(CCN(C)C)c2cccc(OC(F)(F)F)c2)cc1` [Compound 2296]: the IC50 at Nav1.7 (setting [1]) is 265 µM; on Nav1.7 (setting [2]) it was 231 µM; on Nav1.7 (setting [3]), 210 µM; at Nav1.5 (setting [4]) it was 254 µM; against Nav1.5 (setting [5]), 236 µM; at Nav1.5 (setting [6]), 222 µM.
Take `COc1ccc(N(C)C(=O)CN(CCN)c2ccccc2)cc1` [Compound 2302]: the IC50 at Nav1.7 (setting [1]) is 70.2 µM; at Nav1.7 (setting [2]), 77.9 µM; on Nav1.7 (setting [3]) it was 55.4 µM; against Nav1.5 (setting [4]) it was 124 µM; at Nav1.5 (setting [5]), 96.8 µM; at Nav1.5 (setting [6]), 75.9 µM.
In the case of `COc1ccc(N(C)C(=O)CN(CCN(C)C)c2ccc(F)c(Cl)c2)cc1` [Compound 2299], the half-maximal inhibitory concentration (IC50) worked out at 393 µM at Nav1.7 (setting [1]); 315 µM on Nav1.7 (setting [2]); 334 µM on Nav1.7 (setting [3]); 515 µM on Nav1.5 (setting [4]); 449 µM against Nav1.5 (setting [5]); 505 µM at Nav1.5 (setting [6]).
Regarding `COc1ccc(N(C)C(=O)CN(CCN(C)C)c2cccc(Cl)c2)cc1` [Compound 2291], the IC50 at Nav1.7 (setting [1]) amounted to 561 µM; on Nav1.7 (setting [2]) it was 463 µM; on Nav1.7 (setting [3]), 490 µM; on Nav1.5 (setting [4]), 808 µM; against Nav1.5 (setting [5]), 740 µM; against Nav1.5 (setting [6]), 693 µM.
Turning to `COc1ccc(N(C)C(=O)CN(CCN(C)C)c2cc(Cl)ccc2Cl)cc1` [Compound 2298], the IC50 was 273 µM on Nav1.7 (setting [1]); 229 µM on Nav1.7 (setting [2]); 220 µM on Nav1.7 (setting [3]); 249 µM against Nav1.5 (setting [4]); 240 µM against Nav1.5 (setting [5]); 204 µM against Nav1.5 (setting [6]).
Consider `COc1ccc(N(C)C(=O)CN(CCN2CCN(C)CC2)c2ccccc2)cc1` [Compound 2304], for which the IC50 on Nav1.7 (setting [1]) is over 1000 µM; at Nav1.7 (setting [2]), over 1000 µM; on Nav1.7 (setting [3]), over 1000 µM; against Nav1.5 (setting [4]), over 1000 µM; at Nav1.5 (setting [5]), 880 µM; against Nav1.5 (setting [6]), 670 µM.
As to `COc1ccc(N(C)C(=O)CN(CCN(C)C)c2ccccc2)cc1` [Compound 2290], the IC50 at Nav1.7 (setting [1]), on Nav1.7 (setting [2]), on Nav1.7 (setting [3]), against Nav1.5 (setting [4]), at Nav1.5 (setting [5]) and against Nav1.5 (setting [6]) was over 1000 µM each time.
As for `COc1ccc(N(C)C(=O)CN(CCN(C)C)c2ccccc2C(F)(F)F)cc1` [Compound 2301], the IC50 at Nav1.7 (setting [1]) was 312 µM; at Nav1.7 (setting [2]) it was 275 µM; at Nav1.7 (setting [3]) it was 235 µM; at Nav1.5 (setting [4]), 265 µM; at Nav1.5 (setting [5]) it was 243 µM; at Nav1.5 (setting [6]), 154 µM.
As for `COc1ccc(N(C)C(=O)CN(CCN(C)C)c2ccccc2C)cc1` [Compound 2295], the IC50 against Nav1.7, at Nav1.7 (setting [1]), on Nav1.7 (setting [7]), on Nav1.5, against Nav1.5 (setting [5]) and against Nav1.5 (setting [6]) was over 1000 µM throughout.
For the compound `COc1ccc(N(C)C(=O)CN(CCN2CCCCC2)c2ccccc2)cc1` [Compound 2303], the IC50 came out at 15 µM on Nav1.7 (setting [1]); 14.5 µM on Nav1.7 (setting [2]); 13.1 µM at Nav1.7 (setting [3]); 16.6 µM at Nav1.5 (setting [4]); 13.5 µM against Nav1.5 (setting [5]); 9.5 µM at Nav1.5 (setting [6]).
On to `COc1ccc(N(C)C(=O)CN(CCN(C)C)c2ccc(Cl)c(Cl)c2)cc1` [Compound 2292], for which the IC50 on Nav1.7 (setting [1]) was 165 µM; on Nav1.7 (setting [2]), 162 µM; at Nav1.7 (setting [3]), 167 µM; against Nav1.5 (setting [4]), 208 µM; against Nav1.5 (setting [5]), 216 µM; on Nav1.5 (setting [6]) it was 193 µM.

The term IC50 denotes the point on the concentration scale where inhibition reaches its midpoint.

The values above are taken from US11806323B2, “Topical anesthetics” (PTC Innovations, LLC, priority 2022, dated 2023).
